Consider 15 compounds from patent US20250136578A1 (Kolm Therapeutics Inc., priority 2023, published 2025).

Assay [1] relates to VCaP cells. The experiment in a line: VCaP growth inhibition assay (CTG). The assay is classed as cell-based. The settings on record: 30 pM R1881, 9 days. The procedure, abridged:
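Growth was measured by CTG luminescence after a 9-day exposure of VCaP cells to compound (final 10 fM–100 nM, fivefold steps) in the presence of 30 pM final R1881, in phenol red-free DMEM/5% CSS. IC50 values were derived by nonlinear 4-parameter regression of RLU against concentration.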

The target of assay [2] is AR / CBP ternary complex (Homo sapiens, UniProt P10275+Q92793). The experiment in a line: Ternary complex formation assay (sandwich ELISA, AR capture, CBP antibody detection) in VCaP cell lysates. The conditions noted are these: treated 1.5 hours, rabbit CBP or p300 antibody detection, average, read-out: Average Ternary Complex. In kind it is cell-based. The procedure, abridged: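 Sandwich ELISA: plates were coated with anti-AR antibody (AR441) and given lysates of VCaP cells treated 1.5 h with bifunctional compound in charcoal-stripped serum. Co-captured CBP or p300 was probed with rabbit mAbs and HRP secondary. Chemifluorescent signal (ex 570/em 585) was read at 0, 5 and 15 min.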
Sequence of AR / CBP ternary complex (P10275 whole entry): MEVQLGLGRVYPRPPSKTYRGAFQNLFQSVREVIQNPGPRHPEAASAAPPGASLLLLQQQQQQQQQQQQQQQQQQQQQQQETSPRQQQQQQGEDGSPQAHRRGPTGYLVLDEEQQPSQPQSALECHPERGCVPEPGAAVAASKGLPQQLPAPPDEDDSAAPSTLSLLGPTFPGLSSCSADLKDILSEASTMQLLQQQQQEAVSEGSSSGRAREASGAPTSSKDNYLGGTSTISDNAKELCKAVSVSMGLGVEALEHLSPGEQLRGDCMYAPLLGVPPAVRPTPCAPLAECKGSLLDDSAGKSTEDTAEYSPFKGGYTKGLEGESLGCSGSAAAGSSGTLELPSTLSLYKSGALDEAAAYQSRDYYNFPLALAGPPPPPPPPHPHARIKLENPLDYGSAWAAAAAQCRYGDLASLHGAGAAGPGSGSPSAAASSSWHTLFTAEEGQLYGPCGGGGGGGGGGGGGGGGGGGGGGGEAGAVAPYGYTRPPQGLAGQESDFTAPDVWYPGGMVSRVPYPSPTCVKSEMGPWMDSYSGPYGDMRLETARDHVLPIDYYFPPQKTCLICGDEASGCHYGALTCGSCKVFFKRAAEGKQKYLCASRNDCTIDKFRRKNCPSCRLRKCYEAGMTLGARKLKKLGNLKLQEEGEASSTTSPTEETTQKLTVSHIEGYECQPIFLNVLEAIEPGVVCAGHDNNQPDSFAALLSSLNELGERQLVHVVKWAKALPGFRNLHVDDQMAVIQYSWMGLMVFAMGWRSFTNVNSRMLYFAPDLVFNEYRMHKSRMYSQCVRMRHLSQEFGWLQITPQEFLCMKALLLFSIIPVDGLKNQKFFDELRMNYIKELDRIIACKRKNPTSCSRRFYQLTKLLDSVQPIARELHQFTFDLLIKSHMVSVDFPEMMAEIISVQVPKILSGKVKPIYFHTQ
Sequence of AR / CBP ternary complex (Q92793 2-2442): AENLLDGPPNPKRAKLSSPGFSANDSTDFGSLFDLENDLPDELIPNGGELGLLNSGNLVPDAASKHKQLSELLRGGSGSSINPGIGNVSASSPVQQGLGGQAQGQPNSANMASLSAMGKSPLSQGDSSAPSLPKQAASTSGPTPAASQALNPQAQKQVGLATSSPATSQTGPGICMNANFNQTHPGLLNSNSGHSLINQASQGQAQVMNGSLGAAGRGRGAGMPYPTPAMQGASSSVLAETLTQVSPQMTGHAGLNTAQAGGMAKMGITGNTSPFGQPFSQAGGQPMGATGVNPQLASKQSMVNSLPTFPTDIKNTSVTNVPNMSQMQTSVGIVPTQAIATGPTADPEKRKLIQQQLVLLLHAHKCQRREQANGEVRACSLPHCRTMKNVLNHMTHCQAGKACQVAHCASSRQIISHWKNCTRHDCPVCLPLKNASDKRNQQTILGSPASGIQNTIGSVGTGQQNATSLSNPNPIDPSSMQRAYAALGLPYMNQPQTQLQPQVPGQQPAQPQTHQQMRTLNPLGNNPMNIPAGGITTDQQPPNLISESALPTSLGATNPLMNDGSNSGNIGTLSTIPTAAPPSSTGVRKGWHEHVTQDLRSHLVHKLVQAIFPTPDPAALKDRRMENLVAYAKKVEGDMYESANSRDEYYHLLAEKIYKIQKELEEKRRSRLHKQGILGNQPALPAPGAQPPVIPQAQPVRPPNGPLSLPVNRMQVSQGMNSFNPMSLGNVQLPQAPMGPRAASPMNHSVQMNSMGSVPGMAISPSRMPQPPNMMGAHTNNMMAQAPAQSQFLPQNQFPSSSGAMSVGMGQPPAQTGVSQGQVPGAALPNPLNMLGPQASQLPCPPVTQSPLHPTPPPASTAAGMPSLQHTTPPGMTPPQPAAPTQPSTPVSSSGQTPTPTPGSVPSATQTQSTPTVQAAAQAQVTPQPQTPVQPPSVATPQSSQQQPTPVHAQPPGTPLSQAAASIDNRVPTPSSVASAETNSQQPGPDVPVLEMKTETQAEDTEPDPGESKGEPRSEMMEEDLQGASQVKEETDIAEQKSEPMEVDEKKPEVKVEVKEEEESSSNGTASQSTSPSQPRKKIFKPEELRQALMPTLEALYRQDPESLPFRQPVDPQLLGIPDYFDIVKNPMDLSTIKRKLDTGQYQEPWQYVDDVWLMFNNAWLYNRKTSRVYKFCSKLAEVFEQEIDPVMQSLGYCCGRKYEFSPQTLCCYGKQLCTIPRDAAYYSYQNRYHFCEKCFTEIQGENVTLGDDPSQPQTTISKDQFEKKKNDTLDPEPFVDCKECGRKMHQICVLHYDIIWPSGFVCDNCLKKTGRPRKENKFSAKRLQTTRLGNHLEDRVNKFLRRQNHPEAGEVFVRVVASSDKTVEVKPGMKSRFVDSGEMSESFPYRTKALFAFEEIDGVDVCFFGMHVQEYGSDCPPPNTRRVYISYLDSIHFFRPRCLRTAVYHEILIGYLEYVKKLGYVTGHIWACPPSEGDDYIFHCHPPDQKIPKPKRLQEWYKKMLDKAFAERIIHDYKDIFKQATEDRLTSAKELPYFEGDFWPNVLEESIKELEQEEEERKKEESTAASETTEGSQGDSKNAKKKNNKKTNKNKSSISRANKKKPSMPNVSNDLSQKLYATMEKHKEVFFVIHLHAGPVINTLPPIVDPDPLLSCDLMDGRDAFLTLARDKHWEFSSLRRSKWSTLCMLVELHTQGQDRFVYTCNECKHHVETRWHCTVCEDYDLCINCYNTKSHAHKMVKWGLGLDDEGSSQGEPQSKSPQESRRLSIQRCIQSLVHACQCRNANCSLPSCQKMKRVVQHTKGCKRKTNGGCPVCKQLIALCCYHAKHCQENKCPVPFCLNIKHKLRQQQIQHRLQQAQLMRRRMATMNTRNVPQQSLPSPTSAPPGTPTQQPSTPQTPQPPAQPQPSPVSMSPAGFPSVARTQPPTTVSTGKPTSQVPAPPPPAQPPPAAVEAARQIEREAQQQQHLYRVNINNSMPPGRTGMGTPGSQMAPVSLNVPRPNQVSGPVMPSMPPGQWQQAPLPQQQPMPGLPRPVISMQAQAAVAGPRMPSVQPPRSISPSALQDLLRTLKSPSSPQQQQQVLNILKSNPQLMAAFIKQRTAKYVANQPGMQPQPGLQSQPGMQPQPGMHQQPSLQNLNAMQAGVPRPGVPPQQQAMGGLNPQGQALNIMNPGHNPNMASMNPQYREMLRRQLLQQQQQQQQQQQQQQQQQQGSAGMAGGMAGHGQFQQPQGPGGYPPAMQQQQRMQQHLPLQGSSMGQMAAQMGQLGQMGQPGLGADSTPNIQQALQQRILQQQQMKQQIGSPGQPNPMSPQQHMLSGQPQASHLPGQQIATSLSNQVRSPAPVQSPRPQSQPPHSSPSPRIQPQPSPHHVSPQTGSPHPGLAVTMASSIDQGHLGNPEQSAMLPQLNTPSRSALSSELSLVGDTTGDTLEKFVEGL

The compound `CC(=O)N1CCc2c(c(N3CCCc4cc(-c5cnn(C)c5)c(C(F)F)cc43)nn2C2CCN(C[C@H]3CCN(c4ccc(C(=O)N[C@H]5CC[C@H](Oc6ccc(C#N)c(Cl)c6)CC5)nn4)C[C@H]3C)CC2)C1` (stereo in doubt) [Compound 101, 6-[4-[[4-[5-acetyl-3-[7-(difluoromethyl)-6-(1-methylpyrazol-4-yl)-3,4-dihydro-2H-quinolin-1-yl]-6,7-dihydro-4H-pyrazolo[4,3-c]pyridin-1-yl]-1-piperidyl]methyl]-3-methyl-1-piperidyl]-N-[4-(3-chloro-4-cyano-phenoxy)cyclohexyl]pyridazine-3-carboxamide] gave an IC50 in assay [1] of at most 0.1 nM. Besides, the EC50 in assay [2] is under 1 nM.
Consider `CC(=O)N1CCc2c(c(N3CCCc4cc(-c5cnn(C)c5)c(C)cc43)nn2C2CCN(C3CCC4(CC3)CN(c3ccc(C(=O)N[C@H]5CC[C@H](Oc6ccc(C#N)c(C)c6C)CC5)nn3)C4)CC2)C1` [Compound 299], for which, in assay [1] (Homo sapiens, 216 h), the 50% inhibitory concentration (IC50) was at most 0.1 nM. Besides, the EC50 in assay [2] was under 1 nM.
The matching figures for `CC(=O)N1CCc2c(c(N3CCCc4cc(-c5cnn(C)c5)c(C(F)F)cc43)nn2C2CCC(CC3CCN(c4ccc(C(=O)N[C@H]5CC[C@H](Oc6ccc(C#N)c(Cl)c6)CC5)nn4)CC3)CC2)C1` (stereo partly drawn) [Compound 155, 6-[4-[[4-[5-acetyl-3-[7-(difluoromethyl)-6-(1-methylpyrazol-4-yl)-3,4-dihydro-2H-quinolin-1-yl]-6,7-dihydro-4H-pyrazolo[4,3-c]pyridin-1-yl]cyclohexyl]methyl]-1-piperidyl]-N-[4-(3-chloro-4-cyano-phenoxy)cyclohexyl]pyridazine-3-carboxamide]: 0.1 to 1 nM and under 1 nM.
The matching figures for `CC(=O)N1CCc2c(c(N3CCCc4cc(-c5cnn(C)c5)c(C(F)F)cc43)nn2C2CCN(C3CC4(CC(Oc5ccc(C(=O)N[C@H]6CC[C@H](Oc7ccc(C#N)c(Cl)c7)CC6)nn5)C4)C3)CC2)C1` (stereo partly drawn) [Compound 247, 6-[6-[4-[5-acetyl-3-[7-(difluoromethyl)-6-(1-methylpyrazol-4-yl)-3,4-dihydro-2H-quinolin-1-yl]-6,7-dihydro-4H-pyrazolo[4,3-c]pyridin-1-yl]-1-piperidyl]spiro[3.3]heptan-2-yl]oxy-N-[4-(3-chloro-4-cyano-phenoxy)cyclohexyl]pyridazine-3-carboxamide]: at most 0.1 nM and under 1 nM.
The matching figures for `Cn1c(=O)sc2ccc(-c3cccc4cc(-c5ccc(CCC6CCN(c7ccc(C(=O)N[C@H]8CC[C@H](Oc9ccc(C#N)c(Cl)c9)CC8)nn7)CC6)nc5)ncc34)cc21` [Compound 55, N-[4-(3-chloro-4-cyano-phenoxy)cyclohexyl]-6-[4-[2-[5-[8-(3-methyl-2-oxo-1,3-benzothiazol-5-yl)-3-isoquinolyl]-2-pyridyl]ethyl]-1-piperidyl]pyridazine-3-carboxamide]: over 100 nM and under 1 nM.
For the compound `CC(=O)N1CCc2c(c(-c3cccc4ccncc34)nn2C2CCN(CC3CCN(c4ccc(C(=O)N[C@H]5CC[C@H](Oc6ccc(C#N)c(Cl)c6)CC5)nn4)CC3)CC2)C1` [Compound 120, 6-[4-[[4-[5-acetyl-3-(8-isoquinolyl)-6,7-dihydro-4H-pyrazolo[4,3-c]pyridin-1-yl]-1-piperidyl]methyl]-1-piperidyl]-N-[4-(3-chloro-4-cyano-phenoxy)cyclohexyl]pyridazine-3-carboxamide], the IC50 in assay [1] (Homo sapiens, 216 h) lay within 0.1 to 1 nM. In addition, the EC50 in assay [2] is under 1 nM.
The matching figures for `Cc1cc2c(N3CCN(C)c4cc(-c5cnn(C)c5)c(C#N)cc43)cc(OCC3CCN(c4ccc(C(=O)N[C@H]5CC[C@H](Oc6ccc(C#N)c(Cl)c6)CC5)nn4)CC3)cc2n(C)c1=O` [Compound 37, N-[4-(3-chloro-4-cyano-phenoxy)cyclohexyl]-6-[4-[[5-[7-cyano-4-methyl-6-(1-methylpyrazol-4-yl)-2,3-dihydroquinoxalin-1-yl]-1,3-dimethyl-2-oxo-7-quinolyl]oxymethyl]-1-piperidyl]pyridazine-3-carboxamide]: 0.1 to 1 nM and over 100 nM.
In turn, `CC(=O)N1CCc2c(c(N3CCCc4cc(-c5cnn(C)c5)c(C(F)F)cc43)nn2C2CCN(C3CCC4(CC3)CC(Oc3ccc(C(=O)N[C@H]5CC[C@H](Oc6ccc(C#N)c(Cl)c6)CC5)nn3)C4)CC2)C1` (stereo partly drawn) [Compound 245, 6-[7-[4-[5-acetyl-3-[7-(difluoromethyl)-6-(1-methylpyrazol-4-yl)-3,4-dihydro-2H-quinolin-1-yl]-6,7-dihydro-4H-pyrazolo[4,3-c]pyridin-1-yl]-1-piperidyl]spiro[3.5]nonan-2-yl]oxy-N-[4-(3-chloro-4-cyano-phenoxy)cyclohexyl]pyridazine-3-carboxamide] returned an IC50 in assay [1] (Homo sapiens, 216 h) of at most 0.1 nM. Besides, in assay [2], the EC50 was under 1 nM.
In the same order, the values of `CC(=O)N1CCc2c(c(N3CCCc4cc(-c5ccc(CCC6CCN(c7ccc(C(=O)N[C@H]8CC[C@H](Oc9ccc(C#N)c(Cl)c9)CC8)nn7)CC6)cc5)c(C(F)F)cc43)nn2C2CCOCC2)C1` [Compound 154, 6-[4-[2-[4-[1-(5-acetyl-1-tetrahydropyran-4-yl-6,7-dihydro-4H-pyrazolo[4,3-c]pyridin-3-yl)-7-(difluoromethyl)-3,4-dihydro-2H-quinolin-6-yl]phenyl]ethyl]-1-piperidyl]-N-[4-(3-chloro-4-cyano-phenoxy)cyclohexyl]pyridazine-3-carboxamide] are 0.1 to 1 nM and under 1 nM.
In assay [1] (Homo sapiens, 216 h), `CC(=O)N1CCc2c(c(N3CCCc4cc(C#N)ccc43)nn2C2CCN(C[C@H]3CCN(c4ccc(C(=O)N[C@H]5CC[C@H](Oc6ccc(C#N)c(Cl)c6)CC5)nn4)C[C@H]3C)CC2)C1` [Compound 103, 6-[4-[[4-[5-acetyl-3-(6-cyano-3,4-dihydro-2H-quinolin-1-yl)-6,7-dihydro-4H-pyrazolo[4,3-c]pyridin-1-yl]-1-piperidyl]methyl]-3-methyl-1-piperidyl]-N-[4-(3-chloro-4-cyano-phenoxy)cyclohexyl] pyridazine-3-carboxamide] came in with an IC50 of 0.1 to 1 nM. Moreover, the EC50 in assay [2] is under 1 nM.
For the compound `CC(=O)N1CCc2c(c(N3CCCc4cc(C#N)c(C(F)F)cc43)nn2C2CCN(CC3CCN(c4ccc(C(=O)N[C@H]5CC[C@H](Oc6ccc(C#N)c(Cl)c6)CC5)nn4)CC3(C)C)CC2)C1` (stereo partly drawn) [Compound 283, 6-[4-[[4-[5-acetyl-3-[6-cyano-7-(difluoromethyl)-3,4-dihydro-2H-quinolin-1-yl]-6,7-dihydro-4H-pyrazolo[4,3-c]pyridin-1-yl]-1-piperidyl]methyl]-3,3-dimethyl-1-piperidyl]-N-[4-(3-chloro-4-cyano-phenoxy)cyclohexyl]pyridazine-3-carboxamide], the IC50 in assay [1] (Homo sapiens, 216 h) was at most 0.1 nM. The EC50 in assay [2] was under 1 nM.
For the compound `CC(=O)N1CCc2c(c(N3CCCc4cc(C#N)c(C(F)F)cc43)nn2C2CCN(C[C@H]3[C@H](C)CN(c4ccc(C(=O)N[C@H]5CC[C@H](Oc6ccc(C#N)c(Cl)c6)CC5)nn4)C[C@@H]3C)CC2)C1` [Compound 286, 6-[4-[[4-[5-acetyl-3-[6-cyano-7-(difluoromethyl)-3,4-dihydro-2H-quinolin-1-yl]-6,7-dihydro-4H-pyrazolo[4,3-c]pyridin-1-yl]-1-piperidyl]methyl]-3,5-dimethyl-1-piperidyl]-N-[4-(3-chloro-4-cyano-phenoxy)cyclohexyl]pyridazine-3-carboxamide], in assay [1] (Homo sapiens, 216 h), the IC50 was at most 0.1 nM. Moreover, in assay [2], the EC50 is under 1 nM.
The matching figures for `CC(=O)N1CCc2c(c(N3CCCc4cc(-c5cnn(C)c5)ncc43)nn2C2CCN(CC3CCN(c4ccc(C(=O)N[C@H]5CC[C@H](Oc6ccc(C#N)c(Cl)c6)CC5)nn4)CC3)CC2)C1` [Compound 66, rac-6-(4-((4-(5-acetyl-3-(6-(1-methyl-1H-pyrazol-4-yl)-3,4-dihydro-1,7-naphthyridin-1(2H)-yl)-4,5,6,7-tetrahydro-1H-pyrazolo[4,3-c]pyridin-1-yl)piperidin-1-yl)methyl)piperidin-1-yl)-N-((1r,4r)-4-(3-chloro-4-cyanophenoxy)cyclohexyl)pyridazine-3-carboxamide]: 0.1 to 1 nM and under 1 nM.
In the case of `CC(=O)N1CCc2c(c(N3CCCc4cc(C#N)ccc43)nn2[C@H]2C[C@H](CC3CCN(c4ccc(C(=O)N[C@H]5CC[C@H](Oc6ccc(C#N)c(Cl)c6)CC5)nn4)CC3)C2)C1` [Compound 77, 6-[4-[[3-[5-acetyl-3-(6-cyano-3,4-dihydro-2H-quinolin-1-yl)-6,7-dihydro-4H-pyrazolo[4,3-c]pyridin-1-yl]cyclobutyl]methyl]-1-piperidyl]-N-[4-(3-chloro-4-cyano-phenoxy)cyclohexyl]pyridazine-3-carboxamide], the IC50 in assay [1] (Homo sapiens, 216 h) is 0.1 to 1 nM. Moreover, the EC50 in assay [2] fell in the range of 1 to 10 nM.
In the same order, the values of `CC(=O)N1CCc2c(c(N3CCCc4nc(-c5ccc(CCC6CCN(c7ccc(C(=O)N[C@H]8CC[C@H](Oc9ccc(C#N)c(Cl)c9)CC8)nn7)CC6)nc5)ncc43)nn2C2CCOCC2)C1` [Compound 72, 6-[4-[2-[5-[5-(5-acetyl-1-tetrahydropyran-4-yl-6,7-dihydro-4H-pyrazolo[4,3-c]pyridin-3-yl)-7,8-dihydro-6H-pyrido[3,2-d]pyrimidin-2-yl]-2-pyridyl]ethyl]-1-piperidyl]-N-[4-(3-chloro-4-cyano-phenoxy)cyclohexyl]pyridazine-3-carboxamide] are 0.1 to 1 nM and under 1 nM.

The term IC50 denotes the concentration at which inhibition is half-maximal. A lower IC50 goes with inhibition by little substance.
